System: tobacco budworm (Heliothis virescens [Fabricius])
Assay: surface-treated diet test, insecticidal activity against tobacco budworm
Type: in vivo
Set-up: mortality: concentration or dose not given beside the values
Details: 0.25 millimoles of candidate insecticide on the surface of the diet, second instar larvae, five-day exposure
Method in brief: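 Wheat germ artificial diet surface-treated with compound from 50 mM DMSO stock diluted 1:7 in 1:1 water/acetone (0.25 millimolar on diet), or lower-rate dilutions; DMSO-only controls. One second-instar larva per well, 25° C, 60% RH, 14 h light, five days; percent weight inhibition versus untreated and percent mortality scored.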

[1] = compared to total number of insects infested
[2] = inhibition of insect weight relative to untreated controls

## OC1(C(c2ccc(OC(F)(F)F)cc2)c2ccc(OC(F)(F)F)cc2)CCN(Cc2ccc(OCc3ccccc3)cc2)CC1 [Compound 304]
[1]
  Percent Mortality: 100%
[2]
  Percent Growth Inhibition: 100%

## [O-][N+]1(Cc2ccc(C3OCCCO3)cc2)CCC(O)(C(c2ccc(OC(F)(F)F)cc2)c2ccc(OC(F)(F)F)cc2)CC1 (stereo not drawn) [Compound 370]
[1]
  Percent Mortality: 100%
[2]
  Percent Growth Inhibition: 100%

## OC1(C(c2ccc(Cl)c(F)c2)c2ccc(Cl)c(F)c2)CCN(Cc2ccc(Oc3ncccn3)cc2)CC1 [Compound 4]
[1]
  Percent Mortality: 100%
[2]
  Percent Growth Inhibition: 100%

## CCOC(=O)COc1ccc(C[N+]2([O-])CCC(O)(C(c3ccc(OC(F)(F)F)cc3)c3ccc(OC(F)(F)F)cc3)CC2)cc1 (stereo not drawn) [Compound 357]
[1]
  Percent Mortality: 0%
[2]
  Percent Growth Inhibition: 100%

## CC(O)c1ccc(C(c2ccc(OC(F)(F)F)cc2)C2(O)CCN(Cc3ccc(Oc4ccccn4)cc3)CC2)cc1 (mixture of isomers) [Compound 287]
[1]
  Percent Mortality: 100%
[2]
  Percent Growth Inhibition: 100%

## CCCCCCCC(=O)[O-].OC1(C(c2ccc(OC(F)(F)F)cc2)c2ccc(OC(F)(F)F)cc2)CC[N+](O)(Cc2ccc(Oc3ccccn3)cc2)CC1 (stereo not drawn) [Compound 517]
[1]
  Percent Mortality: 100%
[2]
  Percent Growth Inhibition: 100%

## [O-][N+]1(Cc2ccc(Oc3ccccn3)cc2)CCC(O)(C(c2ccc(Cl)cc2)c2ccc(OC(F)(F)F)cc2)CC1 (stereo not drawn) [Compound 391]
[1]
  Percent Mortality: 100%
[2]
  Percent Growth Inhibition: 100%

## OC1(C(c2ccc(OC(F)(F)F)cc2)c2ccc(OC(F)(F)F)cc2)CCN(Cc2ccc(Oc3ncccn3)cc2)CC1 [Compound 19, 4-{bis[4-(trifluoromethoxy)phenyl]methyl}-1-[(4-pyrimidin-2-yloxyphenyl)methyl]piperidin-4-ol]
Heliothis virescens, 120 h, compared to total number of insects infested, read-out: Percent Mortality
  mortality: 100%
Heliothis virescens, 120 h, inhibition of insect weight relative to untreated controls, read-out: Percent Growth Inhibition
  pest or weed control at 0.25 mmol/well: 100%

## OC1(C(c2ccc(C(F)(F)F)cc2)c2cc(Cl)ccc2Cl)CCN(Cc2ccc(Oc3ncccn3)cc2)CC1 (stereo not drawn) [Compound 13]
[1]
  Percent Mortality: 100%
[2]
  Percent Growth Inhibition: 100%

## Cc1cc(Cl)ccc1C(c1ccc(OC(F)(F)F)cc1)C1(O)CCN(Cc2ccc(Oc3ccccn3)cc2)CC1 (stereo not drawn) [Compound 436]
[1]
  Percent Mortality: 100%
[2]
  Percent Growth Inhibition: 100%

## CON=C(Cl)c1ccc(C[N+]2([O-])CCC(O)(C(c3ccc(OC(F)(F)F)cc3)c3ccc(OC(F)(F)F)cc3)CC2)cc1 (stereo not drawn) [Compound 355]
[1]
  Percent Mortality: 100%
[2]
  Percent Growth Inhibition: 100%

## [N-]=[N+]=NCC1(C(c2ccc(C(F)(F)F)cc2)c2ccc(C(F)(F)F)cc2)CCN(Cc2ccc(OCC3CC3)cc2)CC1 [Compound 449]
[1]
  Percent Mortality: 0%
[2]
  Percent Growth Inhibition: 78%

## [O-][N+]1(Cc2ccc(Oc3ccccn3)cc2)CCC(O)(C(c2ccc(OC(F)(F)F)cc2)c2ccc(Cl)cc2F)CC1 (stereo not drawn) [Compound 463]
[1]
  Percent Mortality: 100%
[2]
  Percent Growth Inhibition: 100%

## O=S(=O)([O-])C(F)(F)C(F)(F)C(F)(F)C(F)(F)F.OC1(C(c2ccc(OC(F)(F)F)cc2)c2ccc(OC(F)(F)F)cc2)CC[N+](O)(Cc2ccc(Oc3ccccn3)cc2)CC1 (stereo not drawn) [Compound 508]
[1]
  Percent Mortality: 100%
[2]
  Percent Growth Inhibition: 100%

## CC(C)Oc1ccc(CN2CCC(O)(C(c3ccc(C(F)(F)F)cc3)c3ccc(C(F)(F)F)cc3)CC2)cc1 [Compound 303]
[1]
  Percent Mortality: 100%
[2]
  Percent Growth Inhibition: 100%

## [O-][N+]1(Cc2ccc(C3OCCO3)cc2)CCC(O)(C(c2ccc(OC(F)(F)F)cc2)c2ccc(OC(F)(F)F)cc2)CC1 (stereo not drawn) [Compound 341]
[1]
  Percent Mortality: 100%
[2]
  Percent Growth Inhibition: 100%

## Oc1ccc(CN2CCC(O)(C(c3ccc(C(F)(F)F)cc3)c3ccc(C(F)(F)F)cc3)CC2)cc1 [Compound 302]
[1]
  Percent Mortality: 17%
[2]
  Percent Growth Inhibition: 100%

## Cn1nnc(-c2ccc(C[N+]3([O-])CCC(O)(C(O)(c4ccc(OC(F)(F)F)cc4)c4ccc(OC(F)(F)F)cc4)CC3)cc2)n1 (stereo not drawn) [Compound 122]
[1]
  Percent Mortality: 100%
[2]
  Percent Growth Inhibition: 100%

## [O-][N+]1(Cc2ccc(Oc3ccccn3)cc2)CCC(O)(C(c2ccc(OC(F)(F)F)cc2)c2ccc(Cl)cc2Cl)CC1 (stereo not drawn) [Compound 454]
[1]
  Percent Mortality: 100%
[2]
  Percent Growth Inhibition: 100%

## Cc1cccc(Oc2ccc(C[N+]3([O-])CCC(O)(C(c4ccc(OC(F)(F)F)cc4)c4ccc(OC(F)(F)F)cc4)CC3)cc2)n1 (stereo not drawn) [Compound 354]
[1]
  Percent Mortality: 100%
[2]
  Percent Growth Inhibition: 100%

## CCOC(OCC)c1ccc(C[N+]2([O-])CCC(O)(C(c3ccc(OC(F)(F)F)cc3)c3ccc(OC(F)(F)F)cc3)CC2)cc1 (stereo not drawn) [Compound 351]
[1]
  Percent Mortality: 100%
[2]
  Percent Growth Inhibition: 100%

## CCS(=O)(=O)[O-].OC1(C(c2ccc(C(F)(F)F)cc2)c2ccc(C(F)(F)F)cc2)CC[N+](O)(Cc2ccc(Oc3ccc(Cl)nn3)cc2)CC1 (stereo not drawn) [Compound 518]
[1]
  Percent Mortality: 100%
[2]
  Percent Growth Inhibition: 100%

## [O-][N+]1(Cc2ccc(Oc3ccccn3)cc2)CCC(O)(C(c2ccc(Cl)cc2)c2ccc(Cl)cc2)CC1 (stereo not drawn) [Compound 345]
[1]
  Percent Mortality: 100%
[2]
  Percent Growth Inhibition: 100%

## OC1(C(c2ccc(OC(F)(F)F)cc2)c2ccc(OC(F)(F)F)cc2)CCN(CCCCOc2ccc(Cl)cc2)CC1 [Compound 476]
[1]
  Percent Mortality: 67%
[2]
  Percent Growth Inhibition: 100%

## OC1(C(c2ccc(OC(F)(F)F)cc2)c2ccc(OC(F)(F)F)cc2)CCN(Cc2ccc(Oc3ccccc3Cl)cc2)CC1 [Compound 297]
[1]
  Percent Mortality: 100%
[2]
  Percent Growth Inhibition: 100%

## OC1(C(c2ccc(Cl)cc2)c2ccc(C(F)(F)F)cc2)CCN(Cc2ccc(Oc3ncccn3)cc2)CC1 (stereo not drawn) [Compound 7]
[1]
  Percent Mortality: 100%
[2]
  Percent Growth Inhibition: 100%

## OC1(C(c2ccc(C(F)(F)F)cc2)c2cc(F)cc(F)c2)CCN(Cc2ccc(Oc3ncccn3)cc2)CC1 (stereo not drawn) [Compound 11]
[1]
  Percent Mortality: 33%
[2]
  Percent Growth Inhibition: 100%

## [O-][N+]1(Cc2ccc(Oc3ccccn3)cc2)CCC(O)(C(c2ccc(OC(F)(F)F)cc2)c2cccc(Cl)c2)CC1 (stereo not drawn) [Compound 458]
[1]
  Percent Mortality: 100%
[2]
  Percent Growth Inhibition: 100%

## [O-][N+]1(Cc2ccc(Oc3ccccn3)cc2)CCC(O)(C(c2ccc(OC(F)(F)F)cc2)c2cccc(Cl)c2Cl)CC1 (stereo not drawn) [Compound 456]
[1]
  Percent Mortality: 100%
[2]
  Percent Growth Inhibition: 100%

## OC1(C(c2ccc(OC(F)(F)F)cc2)c2cc(Cl)cc(Cl)c2)CCN(Cc2ccc(Oc3ccccn3)cc2)CC1 (stereo not drawn) [Compound 442]
[1]
  Percent Mortality: 100%
[2]
  Percent Growth Inhibition: 100%

## CC(=O)OCC1(C(c2ccc(C(F)(F)F)cc2)c2ccc(C(F)(F)F)cc2)CCN(Cc2ccc(Oc3ncccn3)cc2)CC1 [Compound 452]
[1]
  Percent Mortality: 0%
[2]
  Percent Growth Inhibition: 100%

## OC1(C(c2ccc(OC(F)(F)F)cc2)c2ccc(OC(F)(F)F)cc2)CCN(Cc2ccc(C=NOCCF)cc2)CC1 [Compound 312]
[1]
  Percent Mortality: 100%
[2]
  Percent Growth Inhibition: 100%

## OC1(C(c2ccc(C(F)(F)F)cc2)c2ccc(C(F)(F)F)cc2)CCN(Cc2ccc(Oc3ncccn3)cc2)CC1 [Compound 16]
[1]
  Percent Mortality: 100%
[2]
  Percent Growth Inhibition: 100%

## O=C(NCc1ccc(Cl)c(Cl)c1)Oc1ccc(CN2CCC(O)(C(c3ccc(OC(F)(F)F)cc3)c3ccc(OC(F)(F)F)cc3)CC2)cc1 [Compound 323]
[1]
  Percent Mortality: 33%
[2]
  Percent Growth Inhibition: 100%

## COc1cc(CN2CCC(O)(C(c3ccc(OC(F)(F)F)cc3)c3ccc(OC(F)(F)F)cc3)CC2)ccc1Oc1ccccn1 [Compound 447]
[1]
  Percent Mortality: 100%
[2]
  Percent Growth Inhibition: 100%

## [O-][N+]1(Cc2ccc(C=NOCC(F)(F)F)cc2)CCC(O)(C(c2ccc(OC(F)(F)F)cc2)c2ccc(OC(F)(F)F)cc2)CC1 (stereo not drawn) [Compound 378]
[1]
  Percent Mortality: 100%
[2]
  Percent Growth Inhibition: 100%

## CCn1nnc(-c2ccc(CN3CCC(O)(C(O)(c4ccc(OC(F)(F)F)cc4)c4ccc(OC(F)(F)F)cc4)CC3)cc2)n1 [Compound 416]
[1]
  Percent Mortality: 100%
[2]
  Percent Growth Inhibition: 100%

## Cc1ccc(C(c2ccc(OC(F)(F)F)cc2)C2(O)CC[N+]([O-])(Cc3ccc(Oc4ccccn4)cc3)CC2)cc1 (stereo not drawn) [Compound 340]
[1]
  Percent Mortality: 100%
[2]
  Percent Growth Inhibition: 100%

## CCON=Cc1ccc(C[N+]2(O)CCC(O)(C(c3ccc(OC(F)(F)F)cc3)c3ccc(OC(F)(F)F)cc3)CC2)cc1.CCS(=O)(=O)[O-] (stereo not drawn) [Compound 491]
[1]
  Percent Mortality: 100%
[2]
  Percent Growth Inhibition: 100%

## CCCOc1ccc(C[N+]2([O-])CCC(O)(C(O)(c3ccc(OC(F)(F)F)cc3)c3ccc(OC(F)(F)F)cc3)CC2)cc1 (stereo not drawn) [Compound 123]
[1]
  Percent Mortality: 100%
[2]
  Percent Growth Inhibition: 100%

## OC1(C(c2ccc(C(F)(F)F)cc2)c2cccc(F)c2)CCN(Cc2ccc(Oc3ncccn3)cc2)CC1 (stereo not drawn) [Compound 12]
[1]
  Percent Mortality: 0%
[2]
  Percent Growth Inhibition: 100%

## Cc1cc(Cl)ccc1C(c1ccc(OC(F)(F)F)cc1)C1(O)CC[N+]([O-])(Cc2ccc(Oc3ccccn3)cc2)CC1 (stereo not drawn) [Compound 461]
[1]
  Percent Mortality: 100%
[2]
  Percent Growth Inhibition: 100%

## OC(COc1ccccc1Cl)CN1CCC(O)(C(c2ccc(OC(F)(F)F)cc2)c2ccc(OC(F)(F)F)cc2)CC1 (stereo not drawn) [Compound 472]
[1]
  Percent Mortality: 17%
[2]
  Percent Growth Inhibition: 93%

## Cc1ccc(Oc2ccc(C[N+]3([O-])CCC(O)(C(c4ccc(OC(F)(F)F)cc4)c4ccc(OC(F)(F)F)cc4)CC3)cc2)nc1 (stereo not drawn) [Compound 350]
[1]
  Percent Mortality: 100%
[2]
  Percent Growth Inhibition: 100%

## CCCOc1ccc(CN2CCC(O)(C(O)(c3ccc(OC(F)(F)F)cc3)c3ccc(OC(F)(F)F)cc3)CC2)cc1 [Compound 91]
[1]
  Percent Mortality: 100%
[2]
  Percent Growth Inhibition: 100%

From US8119563B2, “N-substituted azacycles” (FMC Corporation, priority 2003, dated 2012)
